What was measured:
[1] = test system: CCRF-CEM (childhood T-cell acute lymphoblastic leukaemia); experiment: MTS cytotoxicity assay, CCRF-CEM; type: cell-based; conditions: Homo sapiens, 72 h, read-out: IC50 cytotoxic activity CCRF-CEM
Procedure: (§1) The p53 deficient variant, HCT116p53−/−, was purchased from Horizon Discovery (Cambridge, UK). The daunorubicin-resistant CCRF-CEM cell line CEM-DNR bulk and paclitaxel-resistant K562-TAX sublines were developed in-house by exposing parental cell lines to escalating concentrations of daunorubicin and paclitaxel, respectively. Cells were maintained in the recommended culture medium (Sigma-Aldrich, St. Louis, MO) supplemented with 10% foetal calf serum, 100 U/mL penicillin, and 100 μg/mL streptomycin. The HUVEC line was obtained from PromoCell (Heidelberg, Germany). The cells were cultured in endothelial cell growth medium with SupplementMix for endothelial cells (PromoCell, Heidelberg, Germany). The incubation conditions were a humidified atmosphere of 95% air and 5% CO2 at 37 °C[10]. Cells were seeded in 384-well plates and after overnight incubation treated with compounds. All tested compounds were dissolved in 100% DMSO, and fourfold serial dilutions were performed using an Echo550 liquid handler (Labcyte, San Jose, CA). The experiments were performed in technical duplicates and three biological replicates. Cells were incubated with compounds for 72 h and thereafter 5 μL of MTS reagent was added to each well.

[2] = test system: CEM-DNR (daunorubicin resistant variant of CCRF-CEM); experiment: MTS cytotoxicity assay, CEM-DNR; type: cell-based, human; conditions: Homo sapiens, CEM-DNR, 72 h, read-out: IC50 cytotoxic activity CEM-DNR
Procedure: as §1

[3] = test system: K562 (chronic myelogenous leukaemia); experiment: MTS cytotoxicity assay, K562; type: cell-based; conditions: Homo sapiens, K562, 72 h, read-out: IC50 cytotoxic activity K562
Procedure: as §1

[4] = test system: K562-TAX (paclitaxel-resistant variant of K562); experiment: MTS cytotoxicity assay, K562-TAX; type: cell-based, human; conditions: Homo sapiens, K562-Tax, 72 h, read-out: IC50 cytotoxic activity K562-TAX
Procedure: as §1

[5] = test system: A549 (lung adenocarcinoma); experiment: MTS cytotoxicity assay, A549; type: cell-based, human; conditions: for IC50: Homo sapiens, A549, 72 h, read-out: IC50 cytotoxic activity A549
Procedure: as §1

[6] = test system: HCT116 (colorectal adenocarcinoma); experiment: MTS cytotoxicity assay, HCT116; type: cell-based; conditions: Homo sapiens, HCT-116, 72 h, read-out: IC50 cytotoxic activity HCT116
Procedure: as §1

[7] = test system: HCT116p53−/− (p53 gene null variant of HCT116); experiment: MTS cytotoxicity assay, HCT116p53−/−; type: cell-based; conditions: Homo sapiens, HCT-116, 72 h, read-out: IC50 cytotoxic activity HCT116p53-
Procedure: as §1

U2OS (osteosarcoma) = experiment: MTS cytotoxicity assay, U2OS; type: cell-based, human; conditions: for IC50: Homo sapiens, U2OS, 72 h, read-out: IC50 cytotoxic activity U2OS
Procedure: as §1

[8] = MTS cytotoxicity assay, MRC-5; type: cell-based; conditions: human
Procedure: as §1

[9] = MTS cytotoxicity assay, BJ; type: cell-based; conditions: human
Procedure: as §1

[10] = MTS cytotoxicity assay, HUVEC; type: cell-based; conditions: human
Procedure: as §1

porcine brain tubulin = target: T1, porcine brain tubulin (Sus scrofa, UniProt P02550+P02554); experiment: Tubulin polymerisation assay; type: biochemical; conditions: 10 μmol/L, Vmax relative to DMSO
T1 construct: purchased Cytoskeleton, Denver, CO; host or cells: porcine brain (tissue-purified)
Procedure: Tubulin polymerisation assay kit (Cytoskeleton, Denver, CO) was used according to the manufacturer’s instructions. Polymerisation of porcine brain tubulin (>99% purity) was measured using an EnVision Multilabel Plate Reader (PerkinElmer, Waltham, MA) at 37 °C, in the presence of either 10 μmol/L test compounds or DMSO. Maximum polymerisation velocity (Vmax) was calculated from the polymerisation curves. Data visualisation was performed in OriginPro 2018b (b9.5.5.409) software (OriginLab Corporation, Northampton, MA)[10].

CCRF-CEM lymphoblasts [11] = experiment: Cell cycle analysis by flow cytometry (propidium iodide); type: cell-based, human
Procedure: (§2) To further characterise the mode of action of studied compounds, we analysed the cell cycle profile of CCRF-CEM cells treated with compounds for 24 h. […] The compounds ED1–ED9 and ED12 induced arrest in G2/M phase of the cell cycle (Figure 2(A)). To differentiate between G2 block and mitotic arrest, we used phospho-histone H3 (Ser10) mitotic marker (Figure 2(B)). […] Generally, dimers induced a dose-dependent increase of sub G1 cell population with fragmented DNA except for ED2 and ED4 (Figure 2(C)). […] To assess the proliferation of treated cells, they were subjected to 5-bromo-2-deoxyuridine (BrDU) labelling. […] Analogously, changes in 5-bromouridine (BrU) incorporation were examined to monitor overall RNA synthesis.
(§3) Treated CCRF-CEM cells were harvested, washed with ice-cold phosphate-buffered saline (PBS), fixed in cold 70% ethanol and stored at −20 °C. Prior to analysis, fixed cells were permeabilised with 0.25% Triton X-100 in PBS for 15 min, blocked in 1% bovine serum, and incubated with anti-phospho-Histone H3 (Ser^10) antibody (Merck Millipore, Burlington, MA). Subsequently, the cells were treated with 50 μg/mL RNAse, stained with propidium iodide and analysed by FACSCalibur (Becton Dickinson, Franklin Lakes, NJ) flow cytometer at 488 nm. Cell cycle distribution (G1, S, and G2/M) was analysed using ModFitLT software (Verity, Topsham, ME), and reflects only viable population prior to the fixing procedure. Particles with lower propidium iodide content than G1 phase cells were classified as non-viable cells with fragmented DNA. Flow cytometry data visualisation was performed using OriginPro 2018b (b9.5.5.409) software (OriginLab Corporation, Northampton, MA)[10].

CCRF-CEM lymphoblasts [12] = experiment: Phospho-histone H3 (Ser10) mitotic marker, flow cytometry; type: cell-based, human
Procedure: as §2, §3

CCRF-CEM lymphoblasts [13] = experiment: BrDU incorporation analysis (DNA synthesis); type: cell-based, human
Procedure: as §2
Thirty minutes before harvesting, cells were pulse-labelled with 10 μM BrDU. After overnight fixation in ice-cold 70% ethanol, cells were resuspended in 2 M HCl for 30 min at room temperature (RT), then washed with 0.1 M Na2B4O7 and blocked with PBS containing 0.5% Tween-20 and 1% BSA. BrDU incorporation was analysed using anti-BrdU antibody clone MoBu-1 (Exbio, Vestec, Czech Republic) and a secondary anti-mouse-FITC antibody (Sigma-Aldrich, St. Louis, MO). Cells were washed with PBS and stained with 0.1 mg/mL propidium iodide and 0.5 mg/mL RNase A for 1 h at RT and analysed by flow cytometry using a 488 nm single beam laser (FACSCalibur, Becton Dickinson, Franklin Lakes, NJ). The percentage of cells with incorporated BrDU was analysed using CellQuest software.

CCRF-CEM lymphoblasts [14] = experiment: BrU incorporation analysis (RNA synthesis); type: cell-based, human
Procedure: as §2
Prior to the trypsinisation, cells were treated with 1 mM BrU for 30 min. Subsequently, the cells were fixed in 1% paraformaldehyde with 0.05% of NP-40 for 15 min at RT and stored overnight at 4 °C. Fixed cells were washed with 1% glycine in PBS and stained with primary anti-BrdU antibody clone MoBu-1 crossreacting with BrU (Exbio, Vestec, Czech Republic) for 30 min at RT, washed with PBS and labelled with secondary anti-mouse-FITC antibody (Sigma-Aldrich, St. Louis, MO). Following 1-h incubation in 1% paraformaldehyde containing 0.05% NP-40, cells were stained with propidium iodide (0.1 mg/mL) and treated with RNase A (0.5 mg/mL) for 1 h at RT. The percentage of BrU positive cells was quantified using CellQuest software.

T1 sequence (P02550 whole entry): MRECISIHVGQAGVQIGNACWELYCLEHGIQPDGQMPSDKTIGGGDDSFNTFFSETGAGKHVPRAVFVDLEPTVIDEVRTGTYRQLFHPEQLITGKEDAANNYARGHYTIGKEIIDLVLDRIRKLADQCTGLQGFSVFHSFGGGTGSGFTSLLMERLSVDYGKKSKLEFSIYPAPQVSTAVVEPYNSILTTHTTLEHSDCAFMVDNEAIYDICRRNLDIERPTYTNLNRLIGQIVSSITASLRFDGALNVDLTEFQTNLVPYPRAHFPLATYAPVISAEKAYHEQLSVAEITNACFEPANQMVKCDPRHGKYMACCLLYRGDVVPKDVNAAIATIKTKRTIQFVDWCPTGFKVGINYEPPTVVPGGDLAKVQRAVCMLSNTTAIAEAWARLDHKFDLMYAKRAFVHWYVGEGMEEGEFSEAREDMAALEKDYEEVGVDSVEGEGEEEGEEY
T1 sequence (P02554 whole entry): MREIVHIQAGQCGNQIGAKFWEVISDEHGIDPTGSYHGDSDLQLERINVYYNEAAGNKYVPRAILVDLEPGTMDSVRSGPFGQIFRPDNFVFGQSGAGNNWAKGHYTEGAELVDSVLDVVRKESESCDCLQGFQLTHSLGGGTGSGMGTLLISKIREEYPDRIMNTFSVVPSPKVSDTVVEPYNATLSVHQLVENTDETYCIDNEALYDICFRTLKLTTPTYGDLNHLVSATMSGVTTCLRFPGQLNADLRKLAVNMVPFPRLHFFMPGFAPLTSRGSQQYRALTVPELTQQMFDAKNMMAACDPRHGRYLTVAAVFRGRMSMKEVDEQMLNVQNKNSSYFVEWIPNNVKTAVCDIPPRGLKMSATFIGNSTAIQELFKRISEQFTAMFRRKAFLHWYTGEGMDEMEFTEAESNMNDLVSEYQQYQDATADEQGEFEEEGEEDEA

SMILES	IC50 [1]	IC50 [2]	IC50 [3]	IC50 [4]	IC50 [5]	IC50 [6]	IC50 [7]	IC50 (U2OS (osteosarcoma))	IC50 at 72 h [8]	IC50 at 72 h [9]	IC50 at 72 h [10]	inhibitory activity against tubulin polymerisation (in words) (porcine brain tubulin)	<G1 (sub-G1, fragmented DNA), % of positive cells (CCRF-CEM lymphoblasts [11]; 1×IC50, 24 h)	>G2/M (polyploidy), % of positive cells (CCRF-CEM lymphoblasts [11]; 1×IC50, 24 h)	G0/G1, % of positive cells (CCRF-CEM lymphoblasts [11]; 1×IC50, 24 h)	G2/M, % of positive cells (CCRF-CEM lymphoblasts [11]; 1×IC50, 24 h)	S, % of positive cells (CCRF-CEM lymphoblasts [11]; 1×IC50, 24 h)	<G1 (sub-G1, fragmented DNA), % of positive cells (CCRF-CEM lymphoblasts [11]; 5×IC50, 24 h)	>G2/M (polyploidy), % of positive cells (CCRF-CEM lymphoblasts [11]; 5×IC50, 24 h)	G0/G1, % of positive cells (CCRF-CEM lymphoblasts [11]; 5×IC50, 24 h)	further results
C[C@]12CC[C@@H]3c4ccc(O)cc4CC[C@H]3[C@@H]1CC[C@@]2(O)c1cn(Cc2cc(O)cc(Cn3cc([C@]4(O)CC[C@H]5[C@@H]6CCc7cc(O)ccc7[C@H]6CC[C@@]54C)nn3)c2)nn1 [ED2, (17β,17′β)-17,17′-[(5-Hydroxybenzene-1,3-diyl)bis(methanediyl-1H-1,2,3-triazole-1,4-diyl)]bisestra-1,3,5(10)-triene-3,17-diol]	1.7 ± 0.19 µM	> 50 µM	1.48 ± 0.19 µM	> 50 µM	6.69 ± 0.79 µM	3.57 ± 0.66 µM	4.26 ± 0.94 µM	> 50 µM	> 50 µM	> 50 µM	< 0.0122 µM	weak in vitro inhibition	28.21%	8.33%	2.32%	64.90%	32.78%	19.20%	8.13%	0.47%	G2/M, % of positive cells (CCRF-CEM lymphoblasts [11]; 5×IC50, 24 h): 58.40%; S, % of positive cells (CCRF-CEM lymphoblasts [11]; 5×IC50, 24 h): 41.13%; pH3Ser10, % of positive cells (CCRF-CEM lymphoblasts [12]; 1×IC50, 24 h): 52.73%; pH3Ser10, % of positive cells (CCRF-CEM lymphoblasts [12]; 5×IC50, 24 h): 47.87%; BrDU, % of positive cells (CCRF-CEM lymphoblasts [13]; 1×IC50, 24 h): 15.09%; BrDU, % of positive cells (CCRF-CEM lymphoblasts [13]; 5×IC50, 24 h): 21.14%; BrU, % of positive cells (CCRF-CEM lymphoblasts [14]; 1×IC50, 24 h): 41.11%; BrU, % of positive cells (CCRF-CEM lymphoblasts [14]; 5×IC50, 24 h): 41.82%
CC(=O)Oc1cc(Cn2cc([C@]3(O)CC[C@H]4[C@@H]5CCc6cc(O)ccc6[C@H]5CC[C@@]43C)nn2)cc(Cn2cc([C@]3(O)CC[C@H]4[C@@H]5CCc6cc(O)ccc6[C@H]5CC[C@@]43C)nn2)c1 [ED4, 3,5-Bis({4-[(17β)-3,17-dihydroxyestra-1,3,5(10)-trien-17-yl]-1H-1,2,3-triazol-1-yl}methyl)phenyl acetate]	1.09 ± 0.11 µM	> 50 µM	0.49 ± 0.04 µM	> 50 µM	> 50 µM	2.06 ± 0.18 µM	2.15 ± 0.1 µM	> 50 µM	> 50 µM	> 50 µM	0.016 ± 0.006 µM	comparable or better inhibitory activity	61.81%	6.75%	25.61%	40.50%	33.89%	31.27%	10.24%	8.75%	IC50 cytotoxic activity A549 [5]: did not exhibit activity; IC50 cytotoxic activity U2OS (U2OS (osteosarcoma)): did not exhibit activity; G2/M, % of positive cells (CCRF-CEM lymphoblasts [11]; 5×IC50, 24 h): 71.41%; S, % of positive cells (CCRF-CEM lymphoblasts [11]; 5×IC50, 24 h): 19.84%; mitosis-specific phosphorylation of histone H3 (in words) (CCRF-CEM lymphoblasts [12]; 1× and 5×IC50, 24 h): did not induce an increase of mitosis-specific phosphorylation of histone H3; pH3Ser10, % of positive cells (CCRF-CEM lymphoblasts [12]; 1×IC50, 24 h): 1.25%; pH3Ser10, % of positive cells (CCRF-CEM lymphoblasts [12]; 5×IC50, 24 h): 0.12%; BrDU, % of positive cells (CCRF-CEM lymphoblasts [13]; 1×IC50, 24 h): 26.50%; BrDU, % of positive cells (CCRF-CEM lymphoblasts [13]; 5×IC50, 24 h): 7.16%; BrU, % of positive cells (CCRF-CEM lymphoblasts [14]; 1×IC50, 24 h): 66.58%; BrU, % of positive cells (CCRF-CEM lymphoblasts [14]; 5×IC50, 24 h): 3.26%

From article PMC467089, “Click estradiol dimers with novel aromatic bridging units: synthesis and anticancer evaluation” (Journal of Enzyme Inhibition and Medicinal Chemistry, 2024)
